The text below walks through data of patent publication US20090312352A1 (priority 2004, published 2009).

Holding throughout (test): biochemical
In experiment [1] the target is T1, YopH (Yersinia pestis, UniProt O68720). The experiment is classed as biochemical.
Experiment [2] deals with VHR (Homo sapiens, UniProt P51452).
Experiment [3] addresses CD45 (Homo sapiens, UniProt P08575).
In experiment [4] the target is T1, YopH.
In experiment [5] the target is PTP 1B (Homo sapiens, UniProt P18031).
Experiment [6] addresses LMPTP B (Homo sapiens, UniProt P24666).
For experiment [7], the target named is T1, YopH. The experiment is classed as binding.
In experiment [8] the target is LAR (Homo sapiens, UniProt P10586).
Experiment [9] concerns the target VHX (Homo sapiens, UniProt Q9NRW4).
Experiment [10] addresses TCPTP (Homo sapiens, UniProt P17706).
Experiment [11] has as its target VH1 (Vaccinia virus, UniProt P07239).
The target in experiment [12] is HePTP (Homo sapiens, UniProt P35236).

Turning to `Cc1cc(C(=O)O)ccc1-c1ccc(/C=C2\SC(=S)NC2=O)o1` [Compound 6338530], the figures for the inhibition constant (Ki) in [1] (Ki(c)) and in experiment [1] (Ki(u)) were 11.4 µM and 84.2 µM, respectively.

In the case of `O=C1NC(=O)/C(=C\c2ccco2)S1` [Compound 5377816], in experiment [1], the “YopH inhibition (in words)” value is “complete loss of YopH inhibition”.

In experiment [1] (Ki(c)), `N=C1NC(=O)/C(=C\c2ccc(-c3cccc(C(=O)O)c3)o2)S1` [Compound 5377688] showed a Ki of 19.2 µM.

For `O=C(Cn1nnc(-c2ccccc2)n1)N/N=C/c1ccc(-c2ccc(O)c(C(=O)O)c2)o1` [Compound 5680029], the half-maximal inhibitory concentration (IC50) was 31.6 µM in [2]; 15.1 µM in [3]; 5.1 µM in experiment [4]; 14.3 µM in [5]; above 250 µM in [6]; 35.8 µM in experiment [8]. Besides, the 50% inhibitory concentration (IC50) in [9] is 34.9 µM; in experiment [10], 22.7 µM; in experiment [11], above 250 µM; in [12], 47.9 µM. Besides, the equilibrium dissociation constant (Kd) in [7] came out at 1.04 µM. Besides, the values for the Ki in [1] (Ki(c)) and in experiment [1] (Ki(u)) were 2.8 µM and 8.9 µM, respectively.

For `CSCCC(C(=O)O)N1C(=O)/C(=C\c2ccc(-c3ccc([N+](=O)[O-])cc3)o2)SC1=S` (centres unmarked) [Compound 5850330], the IC50 in [2] was 49 µM; in experiment [3], 38.7 µM; in experiment [4], 11.5 µM; in [5], 38.8 µM; in experiment [6], above 300 µM; in experiment [8], 20.8 µM. Also, the IC50 in experiment [9] was 106 µM; in [10], 197 µM; in [11], above 250 µM; in experiment [12], 95.9 µM. Moreover, the Ki in experiment [1] (Ki(c)) was found to be 9.78 ± 3.32 µM.

For `O=C1NC(=S)S/C1=C\c1ccc(-c2cc([N+](=O)[O-])ccc2O)o1` [Compound 5740279], the Ki in experiment [1] (Ki(c)) was determined as 17.1 µM; in experiment [1] (Ki(u)), 16.5 µM.

For the compound `COc1ccc(C2=CC(=O)C=CC2=O)cc1` [Compound 5760449], the inhibition constant (Ki) in [1] (Ki(c)) is 6.52 ± 1.19 µM; in experiment [1] (Ki(u)) it was 8.02 ± 0.589 µM.

As to `O=Cc1ccc(-c2ccc(C(=O)O)c(O)c2)o1` [Compound 8164075], the “YopH inhibition (in words)” value in [1] is given as “still capable of inhibiting YopH in the low micromolar range”. The figures for the Ki in [1] (Ki(c)) and in [1] (Ki(u)) were 7.89 µM and 61.2 µM, respectively.

As for `COc1ccc(-c2ccc(/C=C3\SC(=S)NC3=O)o2)cc1[N+](=O)[O-]` [Compound 6701338], the Ki is 6.53 µM in [1] (Ki(c)) and 9.8 µM in experiment [1] (Ki(u)).

Regarding `CCN1C(=O)/C(=C\c2ccc(-c3ccc(O)cc3)o2)SC1=S` [Compound 5667408], the Ki is 38.6 µM in experiment [1] (Ki(c)) and 55.7 µM in [1] (Ki(u)).

Take `O=C1NC(=S)S/C1=C\c1ccc(-c2cc(C(=O)O)ccc2Cl)o1` [Compound 6431206]: the affinity in [1] (Ki(c)) corresponds to a Ki of 16.2 µM. In other words, the double-digit micromolar range.

Take `O=C1NC(=O)/C(=C\c2ccc(-c3cccc([N+](=O)[O-])c3)o2)S1` [Compound 5376305]: in experiment [1] (Ki(u)), affinity was put at a Ki of 50 µM.

For the compound `O=C1NC(=S)S/C1=C/c1ccc(-c2ccc(C(=O)O)cc2)o1` [Compound 5660015], the affinity in experiment [1] (Ki(c)), expressed as Ki, was 19.7 µM.

As for `O=C(O)c1cc(-c2ccc(C=C3C(=O)c4ccccc4C3=O)o2)ccc1O` [Compound 5378650], affinity in [1] (Ki(c)) was put at a Ki of 3.2 µM. Compared with the last compound, the Ki is about 6.2-fold lower.

As for `Cc1cc(C)c2nc3s/c(=C\c4ccc(-c5ccc(O)c(C(=O)O)c5)o4)c(=O)n3c2c1` [Compound 5675844], the Ki in experiment [1] (Ki) is 8.8 µM; in experiment [1] (Ki(c)), 8.82 µM; in [1] (Ki(u)) it was 10.9 µM.

Take `O=C1NC(=S)NC(=O)C1=Cc1ccc(-c2ccc(C(=O)O)c(O)c2)o1` [Compound 5557271, 4-(5-((tetrahydro-4,6-dioxo-2-thioxopyrimidin-5(6H)-ylidene)methyl)furan-2-yl)-salicylic acid]: the half-inhibitory concentration (IC50) in experiment [2] is 34.7 µM; in [3], 1.7 µM; in experiment [4] it was 1.4 µM; in [5], 9.7 µM; in [6], above 250 µM; in [8], 10.9 µM. The IC50 is above 250 µM in experiment [9], 11 µM in experiment [10], above 250 µM in experiment [11] and 32.4 µM in experiment [12]. In experiment [7], this compound registered a Kd of 0.33 µM. For the same compound, in experiment [1], the “fold lower inhibitory constant than salicylic acid alone” value is on record as 2667 fold. The Ki in experiment [1] (Ki) and in experiment [1] (Ki(c)) was 0.33 µM throughout.

As to `O=C(O)c1cccc(-c2ccc(/C=C3\SC(=S)N(Cc4ccccc4)C3=O)o2)c1` [Compound 5680282], the values for the Ki in [1] (Ki(c)) and in experiment [1] (Ki(u)) were 17.7 µM and 42.8 µM, respectively.

In the case of `O=C(O)c1cc(-c2ccc(/C=N/n3cnnc3)o2)ccc1O` [Compound 5381181], in [1] (Ki(c)), the Ki was 3.73 µM.

Consider `Cc1cc2nc3s/c(=C\c4ccc(-c5ccc(O)c(C(=O)O)c5)o4)c(=O)n3c2cc1C` [Compound 5670901], for which the IC50 in experiment [2] was 21.2 µM; in experiment [3], 2.5 µM; in [4] it was 2 µM; in experiment [5], 7 µM; in experiment [6] it was above 250 µM; in experiment [8], 7.7 µM. The IC50 is above 250 µM in experiment [9], 11 µM in experiment [10], above 250 µM in experiment [11] and 32.6 µM in [12]. This compound displayed a Kd in experiment [7] of 0.54 µM. Besides, the figures for the Ki in experiment [1] (Ki), in experiment [1] (Ki(c)) and in experiment [1] (Ki(u)) were 0.92 µM, 0.922 µM and 8.3 µM, respectively.

Turning to `Cc1ccc(-c2ccc(/C=C3\SC(=S)NC3=O)o2)c([N+](=O)[O-])c1` [Compound 6145062], the Ki in experiment [1] (Ki(u)) is 94.1 µM.

In the case of `O=C1NC(=O)/C(=C/c2ccc(-c3ccc(O)c(C(=O)O)c3)o2)S1` [Compound 5842540], the IC50 in experiment [2] amounted to 27.5 µM; in [3], 5.7 µM; in experiment [4], 3.9 µM; in experiment [5] it was 12 µM; in [6], 215 µM; in experiment [8], 12.2 µM. Moreover, the IC50 in [9] is 38.5 µM; in experiment [10], 30.2 µM; in experiment [11], above 250 µM; in experiment [12], 34.5 µM. In experiment [7], the affinity, expressed as Kd, was 1.34 µM. The Ki in [1] (Ki(c)) stood at 1.13 ± 0.198 µM; in experiment [1] (Ki(u)) it was 14.1 ± 4.21 µM.

For the compound `O=C1C=CC(=O)C(c2ccc(C(=O)O)cc2)=C1` [4-(3,6-dioxocyclohexa-1,4-dienyl)benzoic acid], the time-dependence of inhibition result in experiment [1] is listed as “clearly showed a time-dependent inhibition”.

For the compound `c1ccc(Nc2nc(-c3ccccc3)[n+](-c3ccccc3)s2)cc1` [Compound 5858065], the Ki turned out to be 1.87 ± 0.924 µM in [1] (Ki(c)) and 2.57 ± 0.563 µM in experiment [1] (Ki(u)).

Compound `O=C(O)c1ccccc1O` [salicylic acid, reference compound] yielded a Ki in [1] (Ki) of 882 µM.

Consider `O=C1NC(=O)C(=Cc2ccc(-c3ccc(O)c(C(=O)O)c3)o2)C(=O)N1` [Compound 5377894], for which the “fold higher Ki value” in [1] turned out to be 12.5 fold. Moreover, the Ki in experiment [1] (Ki) turned out to be 4.1 µM; in experiment [1] (Ki(c)), 4.13 µM.

One may read the Ki as the dissociation constant of the complex between target and ligand, obtained from inhibition or displacement. As usually defined, the IC50 is the concentration at which inhibition is half-maximal. The Kd is the equilibrium constant for the complex coming apart.
